Consider 10 molecules from patent publication US7385063B2, “Method for preparing imidazole derivatives” (Chugai Seiyaku Kabushiki Kaisha, priority 2001, dated 2008).

Data set [1] deals with T1, malonyl-CoA decarboxylase prepared from rat heart (Rattus norvegicus, UniProt Q920F5).
T1 construct: malonyl-CoA decarboxylase prepared from rat heart; from tissue; host or cells: rat heart
T1 sequence (Q920F5 39-492): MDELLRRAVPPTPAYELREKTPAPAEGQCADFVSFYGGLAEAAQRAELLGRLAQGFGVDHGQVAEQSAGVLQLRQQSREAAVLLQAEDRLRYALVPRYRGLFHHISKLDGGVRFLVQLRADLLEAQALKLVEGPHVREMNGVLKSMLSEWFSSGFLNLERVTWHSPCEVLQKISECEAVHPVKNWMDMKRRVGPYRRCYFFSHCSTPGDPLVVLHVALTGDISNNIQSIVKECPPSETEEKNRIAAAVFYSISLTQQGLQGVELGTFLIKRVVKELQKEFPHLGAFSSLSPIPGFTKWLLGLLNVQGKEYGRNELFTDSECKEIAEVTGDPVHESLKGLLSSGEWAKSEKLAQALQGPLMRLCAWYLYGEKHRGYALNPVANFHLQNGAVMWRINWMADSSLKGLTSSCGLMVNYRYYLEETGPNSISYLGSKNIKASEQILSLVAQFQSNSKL
The data set is described as follows: In vitro MCD inhibitory assay (spectrophotometric, 96 well). It is filed as biochemical. The settings on record: concentration causing 50% inhibition of MCD activity, read-out: IC50 of the MCD inhibitors. As for the experimental part:
The following reagents are added into a 96 well titer plate: Tris-HCl buffer, 20 μL; DTE, 10 μL; I-malate, 20 μL; NAD, 10 μL; NADH, 25 μL; water, 80 μL; malic dehydrogenase, 5 μL. The contents are mixed and incubated for 2 min followed by the addition of 5 μL of citrate synthase.

Data set [2] relates to human breast cancer cells. The settings on record: breast carcinoma cells; Pizer et al.; cited from earlier work.

pIC50: −log10 of the molar value.

As a reminder, the pIC50 is −log10 of the IC50, conventionally taken in molar units. As to `O=C(N1CCOCC1)N(CCCCc1nnn[nH]1)c1ccc(C(O)(C(F)(F)F)C(F)(F)F)cc1` [Example 4-114], in data set [1], the negative-log IC50 (pIC50) was 8.00.
The same measure, in the same setting: under `Cc1cc(-c2ccncc2)n(-c2ccc(C(O)(C(F)(F)F)C(F)(F)F)cc2)n1` [Example 8-28] stands 6.65; under `N#Cc1cccc(CS(=O)(=O)c2nccn2-c2ccc(C(O)(C(F)(F)F)C(F)(F)F)cc2)c1` [Example 6-1], 7.74; under `CCN(CCC#N)C(=O)N(CCCCC(=O)O)c1ccc(C(O)(C(F)(F)F)C(F)(F)F)cc1` [Example 4-94], 8.05.
Turning to `O=C(O)CCCCN(C(=O)c1ccncc1)c1ccc(C(O)(C(F)(F)F)C(F)(F)F)cc1` [Example 1-3], the pIC50 in data set [1] is 8.15.
Regarding `OC(c1ccc(-n2nc(-c3ccccn3)cc2-c2ccccn2)cc1)(C(F)(F)F)C(F)(F)F` [Example 8-4], the negative-log IC50 (pIC50) in data set [1] was 6.25.
In the case of `O=C(N1CCOCC1)N(CCCF)c1ccc(C(O)(C(F)(F)F)C(F)(F)F)cc1` [Example 4-130], the negative logarithm of the IC50 (pIC50) in data set [1] is 7.44.
Take `CCCCCCCCCCCCCCOc1ccc(C(=O)O)o1` [TOFA, 5-(tetradecyloxy)-2-furoic acid]: the “malonyl-CoA level, of the control” value in data set [2] is 60%.
Take `O=S(=O)(Nc1ccc(C(O)(C(F)(F)F)C(F)(F)F)cc1)N1CCCCC1` [Example 2-5]: the pIC50 in data set [1] was 6.22.
A word on the melting point: it is the temperature, or range, at which the solid turns liquid. With `O=C(NCc1ccccc1)Nc1ccc(C(O)(C(F)(F)F)C(F)(F)F)cc1` [Example 3, N-benzyl-N′-{4-[2,2,2-trifluoro-1-hydroxy-1-(trifluoromethyl)ethyl]phenyl}urea], the melting point was 163 to 164 °C (dec.).
